Data set [1] can be described thus: Pharmacokinetic evaluation in mouse plasma after oral gavage. The settings on record: 30 mg/kg oral, based on mean concentrations. The data set is classed as in vivo. How it is done:
MJK2134025 and GLPG 1690 were each administered as wet milled aqueous micro-suspensions at a concentration of 3 mg/g in 1% carboxymethyl cellulose and 0.5% Tween 80. Dosing of the formulations was performed at 10.0 g/kg body weight, corresponding to 30 mg/kg body weight. The food intake was measured (FIG. 19).
Prior blood collection, minicollect K3 EDTA vials were opened at room temperature to dry the EDTA in order to avoid blood dilution by the fluid content. Following oral gavage of the test formulations tail vein blood samples were taken at 15 min, 30 min, 1 h, 2 h, 4 h and 8 h. Samples were collected in dried minicollect K3 EDTA plasma vials. The blood samples (20-25 μl) were mixed and immediately cooled to 4° C. Subsequently, the samples were centrifuged at 3000 g for 5-10 min. Supernatants were collected in Eppendorf tubes and frozen and stored at −80° C. until further processing.
MJK2134025 and GLPG1690 were quantified in mouse plasma samples by LC-MS. Frozen mouse plasma samples were thawed on ice. Samples were then precipitated at a ratio of 1:10 (v:v) with 5 ng mL^−1 17:0 LPA in methanol (as an internal standard) in a 1.5 mL Eppendorf tube with microinsert (clear glass, flat bottom, 0.2 mL, 31×6 mm, LABSOLUTE, Germany). The Eppendorf tubes were mixed for 2 minutes at 4° C. and 1600 rpm in a Thermomixer C (Eppendorf, Germany). The Eppendorf tubes were centrifuged at 4° C. and 16.1 rcf for 2 minutes. The supernatant was transferred to HPLC vials for UHPLC-HRMS measurements as described in the following section. Calibration standards of MJK2134025 and GLPG1690 were prepared by adding the reference substances of MJK2134025 and GLPG1690 to blank samples (mouse plasma without substance). The calibration curve was generated at 7 concentrations and with a weighting of 1/×. The following concentrations were used for the stock solutions: 0.1, 0.5, 1, 2.5, 10, 50 and 200 μg·mL^−1 in methanol. To prepare the 200 μg·mL^−1 stock solution, 0.04 mL of 1 mg·mL^−1 MJK2134025 and 0.04 mL of 1 mg·mL^−1 GLPG1690 were mixed with 0.12 mL methanol. These stock solutions (5 μL each) were added to the blank plasma (45 μL). The sample was then mixed for 2 minutes at 4° C. and 1600 rpm in Thermomixer C (Eppendorf, Germany). Subsequent sample processing was the same as for the samples quantified. All quantifications should be considered as preliminary estimates as stable isotope-labeled reference substances were not available and individual matrix effects cannot be excluded.
All processed plasma samples were analyzed with a Vanquish Horizon UHPLC system (Thermo Fisher Scientific, Bremen, Germany) coupled to a Thermo Scientific QExactive HF-X Orbitrap mass spectrometer (Thermo Fisher Scientific, Bremen, Germany) using a UHPLC column (Luna R Omega 1.6 μm C18 100 Å, 100*2.1 mm). A solution of 5 mM ammonium formate in water containing 0.1% formic acid (eluent A) and a 5 mM solution of ammonium formate in acetonitrile: H2O (95:5, % v:v) containing 0.1% formic acid (eluent B) were used as the mobile phase. A flow rate of 0.3 mL/min was used under the following gradient conditions: 30% eluent B for 1 minute, then linear increase to 98% in 14 minutes, holding 98% of eluent B for 5 minutes, and then decreasing to 30% in 0.5 minutes, followed by isocratic holding for 3.5 minutes. The column temperature was maintained at 25° C. Samples were kept at 4° C., and 8 μL was injected into the UHPLC-MS. The QExactive HF-X Orbitrap was acquired at a resolution of 60000 at full half-width and in both positive and negative modes. The following HESI source parameters were used: capillary voltage of 3.8 kV (negative mode) and 3.5 kV (positive mode), capillary temperature of 320° C., funnel RF level 40, sheath gas pressure 49 (N2>95%), auxiliary gas 10 (N2>95%), auxiliary gas heater temperature 300° C. The automatic gain control (AGC) was set to 10E+6. A scan range of m/z 400 to 600 was selected, and the injection time was set to 200 ms. […]

The target of data set [2] is T1, ATX (Homo sapiens, UniProt Q13822).
T1 construct: purchased
In words: ATX activity assay (Autotaxin inhibitor test kit, fluorescent ATX substrate). The data set is classed as biochemical. How it is done: (§1) A solution of 10 mM of the inhibitor to test in DMSO was received. Adding 40.5 μL of this solution to 959.5 μL DMSO gave a concentration of 405 μM. […] For a threefold dilution series 800 μL of 18% DMSO in water were dispensed in twelve 1.5 mL test tubes. 400 μL of the 75.9 μM inhibitor solution were added to the first vial and the solution was vortexed. For every dilution step 400 μL of the corresponding previous dilution step were transferred and mixed by vortexing. The obtained concentrations were 7594 nM, 2531 nM, 844 nM, 281 nM, 94 nM, 31 nM, 10 nM, 3.47 nM, 1.16 nM, 0.39 nM, 0.13 nM, 0.043 nM, 0.014 nM. The eight concentration steps from 31 nM to 0.014 nM were used in the assay.
The assay was performed according to the attached manual of the assay kit. In brief 80 μL reaction buffer containing ATX, 10 μL of the dilution series from the inhibitor and 10 μL fluorescent ATX substrate solution were mixed in a well of a 96 well plate. Cleavage of the substrate by ATX causes increase in fluorescence (excitation 485 nm, emission 528 nm), which is measured by a plate reader in 1 min intervals. The increase of fluorescence between 5 min and 15 min was used to calculate the reaction rate.
The autotaxin reaction was performed in four parallel replicates for the target inhibitor and two replicates for the positive control BrP-LPA. The slope of the increase in fluorescence was calculated by Excel using the “slope” function. The IC50 was calculated by GraphPad Prism using the nolinear regression (curve fit): “log (inhibitor) vs. response with variable slope (four parameters)”.
The autotaxin reaction was performed in three parallel replicates for the target inhibitors MJK2234001 and MJK2234002 and two replicates for MJK2134025 and two replicates for the positive control BrP-LPA. All ATX-tests were performed using the protocol as described above with minor modifications. Those modifications refer to the dilution principle:
as §1, with “The obtained concentrations were 7594 nM, 2531 nM, 844 nM, 281 nM, 94 nM, 31 nM, 10 nM, 3.47 nM, 1.16 nM, 0.39 nM, 0.13 nM, 0.043 nM, 0.014 nM.” left out, “300” for “31”, “0.14” for “0.014”, “assay. During the assay, the final concentration of the inhibitor during the reaction was 1/10th of the added inhibitor solution.” for “assay.”

The record followed here is patent US20240391903A1, “AUTOTAXIN-INHIBITORS” (UNIVERSITAET MUENSTER, priority 2021, published 2024).

Entries after “also recorded” stand apart in the source; their conditions may differ.

In the case of `O=C(OCc1cc(C(F)(F)F)cc(C(F)(F)F)c1)N1CCN(CCS(=O)(=O)c2ccc3nn[nH]c3c2)CC1` [MJK2134025, 3,5-bis(trifluoromethyl)benzyl 4-(2-((1H-benzo[d][1,2,3]triazol-6-yl)sulfonyl)ethyl)piperazine-1-carboxylate], in data set [1], the AUC was 303 µg·h/mL, the Cmax was 56.4 µg/mL and the Tmax turned out to be 2 h. In addition, the “ATX-inhibitory activity (comparison in words)” value in data set [2] is listed as “almost equal ATX-inhibitory activity; also recorded: comparable ATX-inhibtion as PF8380”. Also, the IC50 in data set [2] (read-out: IC50 (nM) ATX inhibition) was 1.8 nM.
